Molecular target: T1, Receptor-interacting serine/threonine-protein kinase 1 (Homo sapiens, UniProt Q13546)
T1 sequence (Q13546 whole entry): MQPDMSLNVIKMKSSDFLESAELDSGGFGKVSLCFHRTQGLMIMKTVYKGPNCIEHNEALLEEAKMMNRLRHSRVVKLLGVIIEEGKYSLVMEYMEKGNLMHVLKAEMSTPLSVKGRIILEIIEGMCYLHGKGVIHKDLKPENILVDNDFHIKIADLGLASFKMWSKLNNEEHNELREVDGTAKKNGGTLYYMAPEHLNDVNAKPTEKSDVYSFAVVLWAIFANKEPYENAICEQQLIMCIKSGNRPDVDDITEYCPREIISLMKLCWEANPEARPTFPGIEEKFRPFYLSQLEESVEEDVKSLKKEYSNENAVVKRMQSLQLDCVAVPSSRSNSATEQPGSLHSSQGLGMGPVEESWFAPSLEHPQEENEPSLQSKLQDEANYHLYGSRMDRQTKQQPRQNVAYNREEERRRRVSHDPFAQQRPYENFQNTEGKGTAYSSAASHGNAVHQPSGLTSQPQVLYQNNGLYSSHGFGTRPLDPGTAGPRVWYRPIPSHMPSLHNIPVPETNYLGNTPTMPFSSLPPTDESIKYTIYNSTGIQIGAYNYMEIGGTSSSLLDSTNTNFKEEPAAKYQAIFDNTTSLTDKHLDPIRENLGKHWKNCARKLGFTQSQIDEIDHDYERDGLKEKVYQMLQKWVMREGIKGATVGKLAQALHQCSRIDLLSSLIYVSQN
Test: Fluorescent Polarization Binding (FP Binding) Assay: Test compounds were serially diluted in DMSO at 100 fold final concentrations in the assay (1% DMSO final). In each well of a 384-well Plate were dispensed 0.1 μL of compound solution (or DMSO for controls) followed by 5 μL of GST-hRIPK1 (8-327) at twice the final concentrations in assay buffer (50 mM HEPES pH 7.5, 10 mM NaCl, 50 mM MgCl2, 0.02% CHAPS, 0.5 mM DTT and 0.01% Pluronic F127). For negative control the enzyme addition was replaced by assay buffer only.After addition of 5 μL of fluorescentlabeled ligand at twice the final concentrations in assay buffer, the plate was incubated at RT for […]. At the end, the binding was measured as FP value with the Envision (PerkinElmer) plate reader using filter for an excitation λ=531 nm FP and an emission λ=595 nm FP (S & P-pol). GST-hRIPK1 (8-327) enzyme was produced via Baculovirus expression.

Compound	IC50
CC1(C(=O)N2CCOc3ccncc3C2)CCN(c2ncc(F)cn2)CC1(F)F (configuration not stated)	< 100 nM
Cc1nc(N2CCC(F)(C(=O)N3CCOc4c(C#N)cncc4C3)CC2)ncc1F	< 100 nM

Source: ChEMBL document CHEMBL5728884, “Kinase inhibitors and uses thereof” (2021)
